Laboratory results taken from ChEMBL document CHEMBL6074666, “Design and Synthesis of Acyclic Boronic Acid Arginase Inhibitors” (J Med Chem, 2024).

Columns and labels:
Arginase-1 [1] = target: T1, Arginase-1 (Homo sapiens, UniProt P05089); assay: Inhibition of recombinant human Arg1 extracted from Escherichia coli incubated for 30 mins by Ellman's method
T1 sequence (P05089 whole entry): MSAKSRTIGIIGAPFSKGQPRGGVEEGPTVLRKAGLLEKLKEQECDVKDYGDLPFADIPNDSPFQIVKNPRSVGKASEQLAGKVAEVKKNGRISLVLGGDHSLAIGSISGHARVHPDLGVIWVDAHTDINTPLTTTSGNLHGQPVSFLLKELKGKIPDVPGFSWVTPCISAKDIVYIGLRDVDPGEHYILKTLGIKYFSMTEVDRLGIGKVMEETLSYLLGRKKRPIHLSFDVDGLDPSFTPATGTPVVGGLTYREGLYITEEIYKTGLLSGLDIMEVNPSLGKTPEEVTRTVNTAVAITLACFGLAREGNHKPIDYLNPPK

[2] = target: T2, Arginase-2, mitochondrial (Homo sapiens, UniProt P78540); assay: Inhibition of recombinant human Arg2 extracted from Escherichia coli incubated for 30 mins by Ellman's method
T2 sequence (P78540 whole entry): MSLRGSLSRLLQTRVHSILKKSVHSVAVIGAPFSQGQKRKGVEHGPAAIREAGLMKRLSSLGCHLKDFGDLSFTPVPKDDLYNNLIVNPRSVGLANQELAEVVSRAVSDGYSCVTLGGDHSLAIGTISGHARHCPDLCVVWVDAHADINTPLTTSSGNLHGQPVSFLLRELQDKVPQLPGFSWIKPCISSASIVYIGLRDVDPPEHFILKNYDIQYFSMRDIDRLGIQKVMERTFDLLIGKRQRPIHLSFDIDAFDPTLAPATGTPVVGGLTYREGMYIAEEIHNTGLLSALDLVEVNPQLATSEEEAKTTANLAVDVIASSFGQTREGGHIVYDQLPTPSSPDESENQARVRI

[3] = Oral availability in rat; assay type: ADME; conditions: in vivo
[4] = Prodrug conversion in rat assessed as oral bioavailability of (2S,3S)-2-amino-3-(aminomethyl)-6-boronohexanoic acid metabolite; assay type: ADME, organism-based; conditions: in vivo
Arginase-1 [5] = target: T1, Arginase-1; assay: Inhibition of Arg1 (unknown origin)
[6] = target: T3, Arginase-1 (Homo sapiens) (UniProt P05089); assay: Potency index, ratio of ABH IC50 to test compound IC50 for recombinant human Arg1 extracted from Escherichia coli incubated for 30 mins by Ellman's method
T3 sequence (whole entry): T1 sequence (P05089 whole entry)

Structure (SMILES)	IC50 (Arginase-1 [1]) [µM]	IC50 [2] [µM]	bioavailability [3] [%]	F [4] [%]	further results
CC(C)[C@H](N)C(=O)NC[C@H](CCCB(O)O)[C@H](N)C(=O)O	43		8.3	41	
N[C@H](C(=O)O)[C@H](CF)CCCB(O)O	0.655	1.88			
N[C@@H](CCCCB(O)O)C(=O)O					IC50 (Arginase-1 [5]): 0.47 µM
CC[C@H](C)[C@H](N)C(=O)NC[C@H](CCCB(O)O)[C@H](N)C(=O)O	33		4.5	39	
C[C@H](N)C(=O)N[C@H](C(=O)O)[C@@H](CN)CCCB(O)O				16	
CC(C)(C)[C@H](N)C(=O)NC[C@H](CCCB(O)O)[C@H](N)C(=O)O	32		19		
N[C@H](C(=O)O)[C@H](CCCB(O)O)CN1CCCCC1		17.4			
CC(C)[C@H](N)C(=O)N[C@H](C(=O)O)[C@H](CN)CCCB(O)O				31	
CNC(=O)[C@@H](CCCB(O)O)[C@H](N)C(=O)O	> 100				
CC(C)[C@H](N)C(=O)NC[C@@H](CCCB(O)O)[C@H](N)C(=O)O	145		29	56	
C[C@H](N)C(=O)N[C@H](C(=O)O)[C@H](CN)CCCB(O)O	68			66	
N[C@H](C(=O)O)[C@@H](CF)CCCB(O)O	4.23	6.08			

Now from value to compound, other results behind:

IC50 (Arginase-1 [1]) [µM]	IC50 [2] [µM]	bioavailability [3] [%]	F [4] [%]	Structure (SMILES)	further results
4.12	6.75			COC[C@H](CCCB(O)O)[C@H](N)C(=O)O	
19.2	41.8			NC(=O)[C@H](CCCB(O)O)[C@H](N)C(=O)O	
	5.18			NC(=O)NC[C@@H](CCCB(O)O)[C@H](N)C(=O)O	
	0.625			NCC[C@@H](CCCB(O)O)[C@H](N)C(=O)O	
21		6.3	13	NCC(=O)NC[C@H](CCCB(O)O)[C@H](N)C(=O)O	
> 100	> 100			NC(=O)[C@@H](CCCB(O)O)[C@H](N)C(=O)O	
25		1.5	72	CC[C@H](N)C(=O)NC[C@H](CCCB(O)O)[C@H](N)C(=O)O	
10.9	18.7			COC[C@@H](CCCB(O)O)[C@H](N)C(=O)O	
0.22	0.534			N=C(N)NC[C@@H](CCCB(O)O)[C@H](N)C(=O)O	
> 100	> 100			COC(=O)[C@@H](CCCB(O)O)[C@H](N)C(=O)O	
157		10		C[C@H](N)C(=O)NC[C@@H](CCCB(O)O)[C@H](N)C(=O)O	
34.2	> 100			CNC(=O)[C@H](CCCB(O)O)[C@H](N)C(=O)O	
		17		NC[C@@H](CCCB(O)O)[C@H](N)C(=O)O	
	1.93			CNC[C@@H](CCCB(O)O)[C@H](N)C(=O)O	
74	96.8			N[C@H](C(=O)O)[C@@H](N)CCCB(O)O	
18.5	51.9			COC(=O)[C@H](CCCB(O)O)[C@H](N)C(=O)O	
12		5.1	55	C[C@H](N)C(=O)NC[C@H](CCCB(O)O)[C@H](N)C(=O)O	Ratio IC50 [6]: 40
	0.224	11		NC[C@H](CCCB(O)O)[C@H](N)C(=O)O	
